{"source": "patent US6915969B2", "about": "“Method and installation for making flour from ozone-treated grains” (Green Technologies Sarl, priority 1999, dated 2005)", "experiment": "reduction of pesticide contaminants", "design": "species or system wheat", "details": "after treatment by the method of the invention (ozone)", "from_the_text": "A reduction of about 80% in the content of Chlorpyriphosmethyl (a pesticide generally used in the case of wheat) was thus observed, thus leading certainly to a product which is perfectly acceptable from the point of view of the current food standards."}
{"compound": "COP(=S)(OC)Oc1nc(Cl)c(Cl)cc1Cl", "note": "[Chlorpyriphosmethyl]", "values": [{"measurement": "reduction in the content of Chlorpyriphosmethyl", "result": "about 80%"}]}
